Key:
[1] = molecular target: T1, human cloned CHRM2 receptor (Homo sapiens, UniProt P08172); assay: CHRM2 Ca++ Flux Assay (M2_CHO cells, agonist mode); assay type: cell-based; conditions: M2 CHO cells; for EC50: agonist mode, geometric mean if tested more than once, read-out: M2 FDSS EC50; for M2 FDSS PA % / Emax: Percent Activity (PA) measured to EC100 of Carbachol; for Emax: read-out: M2 FDSS PA %
T1 construct: expressed in transfected cells; host or cells: CHO-K1 (M2_CHO)
T1 sequence (P08172 1-466): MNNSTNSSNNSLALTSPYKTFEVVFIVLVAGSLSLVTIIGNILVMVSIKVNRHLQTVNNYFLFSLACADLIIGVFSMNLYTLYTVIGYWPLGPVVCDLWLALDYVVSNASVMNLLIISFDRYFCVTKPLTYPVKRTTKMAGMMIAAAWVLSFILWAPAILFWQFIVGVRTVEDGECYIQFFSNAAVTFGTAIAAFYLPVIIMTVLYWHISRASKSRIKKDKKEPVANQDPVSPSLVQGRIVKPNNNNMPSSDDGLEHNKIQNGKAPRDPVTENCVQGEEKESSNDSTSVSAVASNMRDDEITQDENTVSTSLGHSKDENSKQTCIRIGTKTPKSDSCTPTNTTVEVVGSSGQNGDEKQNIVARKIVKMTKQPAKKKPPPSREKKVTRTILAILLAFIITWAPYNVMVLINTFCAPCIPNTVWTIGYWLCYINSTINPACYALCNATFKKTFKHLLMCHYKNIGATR
Description: (§1) The above examples were characterized by measuring the intracellular mobilization of Ca^++ ions caused by signaling events mediated by the receptor. The Intra-cellular Calcium flux levels were captured by the highly sensitive Ca^++ indicator, Calcium Assay Kit (BD Biosciences; Catalog Number 640178. The fluorescent activity from all receptors were monitored by the fluorescent imager, FDSS 7000EX (Hamamatsu) over a span of 3 minutes. The change in Calcium flux was readily captured upon activation with the muscarinic orthosteric agonist, Carbachol.
CHO-K1 cells stably expressing the human cloned CHRM2 receptor (M2_CHO cells) were grown and maintained in a monolayer culture with F12/HAM (Life Technologies) supplemented with 10% Fetal Bovine Serum, 1×Pen-Strep, and 0.4 mg/mL Geneticin in a humidified atmosphere (5% CO2) at 37° C. The cultures were grown to 80-90% confluency in T150 flasks (Corning) and washed with 1×DPBS and lifted with 0.05% Trypsin (Life Technologies). The cells were then spun (1K rpm, 3 minutes) and frozen using Recovery Cell Culture Freezing Media (Gibco Technologies). Cells were stored in liquid nitrogen and thawed a day before the assay.
Prior to the day of the assay, stable M2 CHO cells were thawed and plated on Greiner 384 well TC treated plate at a density of 12K cells/well and kept overnight in a humidified atmosphere (5% CO2) at 37° C. The following day, the cells were loaded with Ca^++ dye (BD Biosciences) using Loading Buffer (HBSS +Ca/+Mg, 20 mM HEPES, 2.5 mM Probenecid) and placed back in cell incubator for a minimum of 1 hour and maximum of 2 hours. After incubation, the dye was replaced with Assay Buffer (HBSS −Ca/−Mg, 20 mM HEPES, 2.5 mM Probenecid) supplemented with 20 μM ATP (Sigma Aldrich) and kept at room temperature for 60 minutes prior before running on cell imager. The FDSS 7000EX (Hamamatsu) was used to acquire Ca^++ traces from cells in response to compound treatment and the data was used to generate dose response curves in agonist mode. All compounds were serially diluted in DMSO then prepared in Assay Buffer for Ca^−+ flux studies. The dose response curves were generated from the average of triplicate wells obtained from each data point and used a non-linear regression of four parameter dose response algorithm. The Percent Activity (PA) was measured to EC100 of Carbachol.
(§2) If an Example was tested more than once in an assay, then the values below represent the geometric mean of the results from each independent experiment.

[2] = molecular target: T2, human cloned CHRM4 receptor (Homo sapiens, UniProt P08173); assay: CHRM4 Ca++ Flux Assay (M4_CHO cells, agonist mode); assay type: cell-based; conditions: for M4 FDSS PA % / Emax: Percent Activity (PA); for EC50: geometric mean if tested more than once, read-out: M4 FDSS EC50; for Emax: read-out: M4 FDSS PA %
T2 construct: expressed in transfected cells; host or cells: CHO-K1 (M4_CHO)
T2 sequence (P08173 1-479): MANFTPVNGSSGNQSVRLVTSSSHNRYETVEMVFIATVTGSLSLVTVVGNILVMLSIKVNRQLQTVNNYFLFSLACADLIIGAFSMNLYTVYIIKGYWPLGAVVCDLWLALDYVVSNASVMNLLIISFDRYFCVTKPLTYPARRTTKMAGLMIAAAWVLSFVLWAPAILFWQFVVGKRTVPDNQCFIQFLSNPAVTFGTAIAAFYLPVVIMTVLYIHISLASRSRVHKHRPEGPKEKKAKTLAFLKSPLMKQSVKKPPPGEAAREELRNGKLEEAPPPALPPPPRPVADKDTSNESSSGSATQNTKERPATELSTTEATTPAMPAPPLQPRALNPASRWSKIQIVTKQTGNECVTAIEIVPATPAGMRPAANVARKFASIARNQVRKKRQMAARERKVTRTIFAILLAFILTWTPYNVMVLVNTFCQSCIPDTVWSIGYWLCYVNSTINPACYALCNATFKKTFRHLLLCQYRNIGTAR
Description: as §1
CHO-K1 cells stably expressing the human cloned CHRM4 receptor (M4_CHO cells) were grown and maintained in a monolayer culture with F12/HAM (Life Technologies) supplemented with 10% Fetal Bovine Serum, 1X Pen-Strep, and 0.4 mg/mL Geneticin in a humidified atmosphere (5% CO2) at 37° C. The cultures were grown to 80-90% confluency in T150 flasks (Corning) and washed with 1×DPBS then lifted with 0.05% Trypsin (Life Technologies). The cells were harvested in growth media then spun (1K rpm, 3 minutes) and cryopreserved using Recovery Cell Culture Freezing Media (Gibco Technologies). Cells were stored in liquid nitrogen and thawed a day before the assay.
Prior to the day of the assay, stable M4_CHO cells were thawed and plated on 384 well black walled clear bottom TC treated plates (Greiner Cat #781091) at 12K cells/well using F12/HAM Media supplemented with 10% FBS (Life Technologies) and kept overnight in a humidified atmosphere (5% CO2) at 37° C. The next day, cells were loaded with 20 μL Ca^++ dye (BD Biosciences) using Loading Buffer (HBSS +Ca/+Mg, 20 mM HEPES, 2.5 mM Probenecid) and placed back in cell incubator for a minimum of 1 hour. After incubation, the dye was replaced with 45 μL Assay Buffer (HBSS −Ca/−Mg, 20 mM HEPES, 2.5 mM Probenecid) supplemented with 20 μM ATP (Sigma Aldrich) and kept at room temperature in the dark for 60 minutes before running on a cell imager. The FDSS 7000EX (Hamamatsu) was used to capture Ca^++ traces for a span of 3 minutes from cells treated with 11 point dose of compound in triplicate in order to generate dose response curves in agonist mode. All compounds were serially diluted in DMSO then prepared in Assay Buffer for Ca^++ flux studies. The dose response curves were generated from the average of triplicate wells obtained from each data point and used a non-linear regression of four parameter dose response algorithm. The Percent Activity (PA) was measured to EC100 of Carbachol.
as §2

SMILES	EC50 [1] [nM]	M2 FDSS PA % [1] [%]	M4 FDSS PA % [2] [%]	EC50 [2] [nM]	Emax [1] [%]	Emax [2] [%]
Fc1ccc(OC[C@@H]2CCOC2)c(C2CCN([C@@H]3COC4(C3)CN(c3nnco3)C4)CC2)c1 [Example 1B, (S)-7-(4-(5-fluoro-2-(((R)-tetrahydrofuran-3-yl)methoxy)phenyl)piperidin-1-yl)-2-(1,3,4-oxadiazol-2-yl)-5-oxa-2-azaspiro[3.4]octane]	492			10	39	84
Fc1ccc(OC[C@H]2COCCO2)c(C2CCN([C@@H]3COC4(C3)CN(c3nnco3)C4)CC2)c1 [Example 1C]	503			36	29	78
Fc1ccc(O[C@@H]2CCOC2)c(C2CCN([C@@H]3COC4(C3)CN(c3nnco3)C4)CC2)c1 [Example 1D, (S)-7-(4-(5-fluoro-2-(((R)-tetrahydrofuran-3-yl)oxy)phenyl)piperidin-1-yl)-2-(1,3,4-oxadiazol-2-yl)-5-oxa-2-azaspiro[3.4]octane]	607			21	50	80
CC(C)(C#N)COc1ccc(F)cc1C1CCN([C@@H]2COC3(C2)CN(c2nnco2)C3)CC1 [Example 1E, (S)-3-(2-(1-(2-(1,3,4-oxadiazol-2-yl)-5-oxa-2-azaspiro[3.4]octan-7-yl)piperidin-4-yl)-4-fluorophenoxy)-2,2-dimethylpropanenitrile]	557			27	32	78
Fc1ccc(OC[C@@H]2COCCO2)c(C2CCN([C@@H]3COC4(C3)CN(c3nnco3)C4)CC2)c1 [Example 1F, (S)-7-(4-(2-(((S)-1,4-dioxan-2-yl)methoxy)-5-fluorophenyl)piperidin-1-yl)-2-(1,3,4-oxadiazol-2-yl)-5-oxa-2-azaspiro[3.4]octane]	390			30	31	78
Fc1ccc(OC2CCOCC2)c(C2CCN([C@@H]3COC4(C3)CN(c3nnco3)C4)CC2)c1 [Example 1G, (S)-7-(4-(5-fluoro-2-((tetrahydro-2H-pyran-4-yl)oxy)phenyl)piperidin-1-yl)-2-(1,3,4-oxadiazol-2-yl)-5-oxa-2-azaspiro[3.4]octane]	1250			31	35	84
Fc1ccc(O[C@H]2CCOC2)c(C2CCN([C@@H]3COC4(C3)CN(c3nnco3)C4)CC2)c1 [Example 1H, (S)-7-(4-(5-fluoro-2-(((S)-tetrahydrofuran-3-yl)oxy)phenyl)piperidin-1-yl)-2-(1,3,4-oxadiazol-2-yl)-5-oxa-2-azaspiro[3.4]octane]	801			34	30	77

The next lines start with the values.

EC50 [1] [nM]	M2 FDSS PA % [1] [%]	M4 FDSS PA % [2] [%]	EC50 [2] [nM]	Emax [1] [%]	Emax [2] [%]	SMILES
3860	32	91.2	38			O[C@H]1CC[C@@H](c2ccc(F)cc2C2CCN([C@@H]3COC4(C3)CN(c3nnco3)C4)CC2)CC1 (single isomer, unassigned) [Example 3I, (1R,4s)-4-(2-(1-((S)-2-(1,3,4-oxadiazol-2-yl)-5-oxa-2-azaspiro[3.4]octan-7-yl)piperidin-4-yl)-4-fluorophenyl)cyclohexan-1-ol or (1S,4r)-4-(2-(1-((S)-2-(1,3,4-oxadiazol-2-yl)-5-oxa-2-azaspiro[3.4]octan-7-yl)piperidin-4-yl)-4-fluorophenyl)cyclohexan-1-ol]
17700	43	63	25			CC(C)(O)[C@H]1C[C@@H](Oc2ccc(F)cc2C2CCN([C@@H]3COC4(C3)CN(c3ncco3)C4)CC2)C1 (single isomer, unassigned) [Example 4T, 2-((1R,3s)-3-(4-fluoro-2-(1-((S)-2-(oxazol-2-yl)-5-oxa-2-azaspiro[3.4]octan-7-yl)piperidin-4-yl)phenoxy)cyclobutyl)propan-2-ol or 2-((1S,3r)-3-(4-fluoro-2-(1-((S)-2-(oxazol-2-yl)-5-oxa-2-azaspiro[3.4]octan-7-yl)piperidin-4-yl)phenoxy)cyclobutyl)propan-2-ol]
15200	38	62	42			CC(C)(O)[C@H]1C[C@@H](Oc2ccc(F)cc2C2CCN([C@@H]3COC4(C3)CN(c3ncco3)C4)CC2)C1 (single isomer, unassigned) [Example 4U, 2-((1R,3s)-3-(4-fluoro-2-(1-((S)-2-(oxazol-2-yl)-5-oxa-2-azaspiro[3.4]octan-7-yl)piperidin-4-yl)phenoxy)cyclobutyl)propan-2-ol or 2-((1S,3r)-3-(4-fluoro-2-(1-((S)-2-(oxazol-2-yl)-5-oxa-2-azaspiro[3.4]octan-7-yl)piperidin-4-yl)phenoxy)cyclobutyl)propan-2-ol]
7980			210	22	16	Fc1cc(F)c(OC2CC3(COC3)C2)c(C2CCN([C@@H]3COC4(C3)CN(c3nnco3)C4)CC2)c1 [Example 2AA, (S)-7-(4-(2-((2-oxaspiro[3.3]heptan-6-yl)oxy)-3,5-difluorophenyl)piperidin-1-yl)-2-(1,3,4-oxadiazol-2-yl)-5-oxa-2-azaspiro[3.4]octane]

Source: patent US11485742B2, “2-azaspiro[3.4]octane derivatives as M4 agonists” (NOVARTIS AG, priority 2019, dated 2022)
